This note sets out measurements from PMC5862592, “CDK8/19 inhibition induces premature G1/S transition and ATR-dependent cell death in prostate cancer cells” (Oncotarget, 2018).

Structures are written as SMILES. Read-outs that look alike come from different tables or passages of the source.

Test in all cases: biochemical
Holding throughout (set-up): KINOMEscan active site-directed competition binding assay (DiscoveRx), 456 kinases, per cent of control at 300 nM
Common to all, as to details: read-out: Percent of Control (%)

One assay has as its target T1, SGK (Homo sapiens, UniProt O00141).
T1 construct: gene SGK1
The essentials: (§1)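 Kinase panel (456 enzymes) profiled by competitive displacement at the active site; compounds run at 300 nmol/L.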

In a further assay the target is TEC (Homo sapiens, UniProt P42680). The method in brief: as §1
For a further assay, the target named is MKNK2 (Homo sapiens, UniProt Q9HBH9). The essentials: as §1
Chain of MKNK2 (Q9HBH9 whole entry): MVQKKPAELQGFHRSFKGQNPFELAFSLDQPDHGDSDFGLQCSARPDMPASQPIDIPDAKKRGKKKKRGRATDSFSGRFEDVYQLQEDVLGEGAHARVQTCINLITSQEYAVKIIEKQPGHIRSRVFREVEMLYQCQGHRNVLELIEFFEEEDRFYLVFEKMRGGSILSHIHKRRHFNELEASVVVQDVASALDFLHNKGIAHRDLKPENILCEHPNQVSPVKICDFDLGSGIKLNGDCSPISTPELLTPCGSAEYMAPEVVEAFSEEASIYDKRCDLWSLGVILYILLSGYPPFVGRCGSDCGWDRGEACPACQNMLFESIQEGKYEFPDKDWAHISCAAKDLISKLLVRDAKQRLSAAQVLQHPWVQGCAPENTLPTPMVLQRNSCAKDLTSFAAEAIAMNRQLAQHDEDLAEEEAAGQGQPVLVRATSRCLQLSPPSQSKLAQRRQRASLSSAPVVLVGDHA
The target in another assay is MARK4 (Homo sapiens, UniProt Q96L34). The method in brief:
as §1

Another assay has as its target CLK1 (Homo sapiens, UniProt P49759). The essentials:
as §1

The next assay addresses T2, SgK110 (Homo sapiens, UniProt P0C264).
T2 construct: gene SBK3
The method in brief: as §1

The next assay concerns the target SLK (Homo sapiens, UniProt Q9H2G2). The essentials:
as §1

The target in another assay is PRKCH (Homo sapiens, UniProt P24723). The essentials:
as §1

For another assay, the target named is ROCK2 (Homo sapiens, UniProt O75116). The essentials: as §1
A further assay deals with MET(Y1235D) (Homo sapiens, UniProt P08581, Y1235D). The method in brief:
as §1

Another assay has as its target ERBB4 (Homo sapiens, UniProt Q15303). The method in brief: as §1
The target in the next assay is T3, ERK2 (Homo sapiens, UniProt P28482).
T3 construct: gene MAPK1
The essentials:
as §1

For a further assay, the target named is GAK (Homo sapiens, UniProt O14976). The essentials:
as §1

Assay [1] concerns the target T4, RPS6KA4(Kin.Dom.1-N-terminal) (Homo sapiens, UniProt O75676).
T4 construct: Kin.Dom.1-N-terminal
The essentials: as §1

Another assay addresses CDKL2 (Homo sapiens, UniProt Q92772). The method in brief: as §1
In a further assay the target is T5, TRKB (Homo sapiens, UniProt Q16620).
T5 construct: gene NTRK2
T5 sequence (Q16620 whole entry): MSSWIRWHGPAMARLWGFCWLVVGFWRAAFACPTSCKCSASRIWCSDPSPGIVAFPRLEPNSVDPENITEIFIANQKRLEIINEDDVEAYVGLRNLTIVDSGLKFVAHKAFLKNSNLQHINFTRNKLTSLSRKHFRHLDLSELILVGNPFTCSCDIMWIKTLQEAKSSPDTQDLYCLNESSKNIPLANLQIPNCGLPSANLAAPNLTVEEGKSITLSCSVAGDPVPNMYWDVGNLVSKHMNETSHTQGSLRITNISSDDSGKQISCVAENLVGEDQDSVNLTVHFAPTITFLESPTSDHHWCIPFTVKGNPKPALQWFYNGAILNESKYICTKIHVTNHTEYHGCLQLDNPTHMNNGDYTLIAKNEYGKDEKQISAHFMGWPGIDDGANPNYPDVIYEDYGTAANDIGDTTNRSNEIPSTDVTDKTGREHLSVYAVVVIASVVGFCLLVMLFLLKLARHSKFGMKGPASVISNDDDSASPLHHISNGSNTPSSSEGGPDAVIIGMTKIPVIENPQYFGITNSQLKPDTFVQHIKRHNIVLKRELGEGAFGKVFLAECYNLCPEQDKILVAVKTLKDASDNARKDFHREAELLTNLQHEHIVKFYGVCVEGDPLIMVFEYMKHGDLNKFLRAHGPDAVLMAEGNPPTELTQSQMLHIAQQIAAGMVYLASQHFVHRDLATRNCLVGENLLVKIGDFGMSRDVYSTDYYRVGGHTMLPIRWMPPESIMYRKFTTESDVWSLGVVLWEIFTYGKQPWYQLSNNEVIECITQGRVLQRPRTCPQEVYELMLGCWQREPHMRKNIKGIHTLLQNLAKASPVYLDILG
The method in brief:
as §1

In a further assay the target is RIOK2 (Homo sapiens, UniProt Q9BVS4). The essentials: as §1
Another assay deals with BRAF (Homo sapiens, UniProt P15056). The method in brief: as §1
Chain of BRAF (P15056 whole entry): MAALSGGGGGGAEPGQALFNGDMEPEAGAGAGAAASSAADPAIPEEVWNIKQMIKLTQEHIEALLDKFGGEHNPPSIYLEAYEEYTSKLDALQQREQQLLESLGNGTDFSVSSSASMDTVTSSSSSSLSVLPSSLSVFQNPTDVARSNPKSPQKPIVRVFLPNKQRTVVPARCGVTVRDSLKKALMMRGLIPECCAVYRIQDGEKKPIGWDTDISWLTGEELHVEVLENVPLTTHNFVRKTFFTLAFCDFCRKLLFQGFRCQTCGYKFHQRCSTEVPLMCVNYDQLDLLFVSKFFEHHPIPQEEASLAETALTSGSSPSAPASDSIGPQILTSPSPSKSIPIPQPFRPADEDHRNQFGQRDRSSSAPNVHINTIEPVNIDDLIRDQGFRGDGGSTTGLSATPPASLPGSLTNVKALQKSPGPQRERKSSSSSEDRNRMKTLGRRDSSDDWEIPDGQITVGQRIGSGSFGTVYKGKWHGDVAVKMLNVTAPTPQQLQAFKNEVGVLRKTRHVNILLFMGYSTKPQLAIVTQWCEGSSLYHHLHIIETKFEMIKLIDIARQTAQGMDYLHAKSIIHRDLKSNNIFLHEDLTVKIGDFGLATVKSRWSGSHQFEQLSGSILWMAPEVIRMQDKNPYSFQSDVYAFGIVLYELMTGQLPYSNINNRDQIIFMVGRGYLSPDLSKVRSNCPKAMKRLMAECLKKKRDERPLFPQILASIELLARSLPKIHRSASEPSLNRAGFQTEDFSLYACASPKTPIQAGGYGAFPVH
A further assay has as its target T6, MLK3 (Homo sapiens, UniProt Q16584).
T6 construct: gene MAP3K11
The method in brief: as §1

The next assay concerns the target LRRK2(G2019S) (Homo sapiens, UniProt Q5S007, G2019S). The method in brief: as §1
Another assay has as its target T7, p38-delta (Homo sapiens, UniProt O15264).
T7 construct: gene MAPK13
The essentials:
as §1

For another assay, the target named is T8, PFTAIRE2 (Homo sapiens, UniProt Q96Q40).
T8 construct: gene CDK15
T8 sequence (Q96Q40 whole entry): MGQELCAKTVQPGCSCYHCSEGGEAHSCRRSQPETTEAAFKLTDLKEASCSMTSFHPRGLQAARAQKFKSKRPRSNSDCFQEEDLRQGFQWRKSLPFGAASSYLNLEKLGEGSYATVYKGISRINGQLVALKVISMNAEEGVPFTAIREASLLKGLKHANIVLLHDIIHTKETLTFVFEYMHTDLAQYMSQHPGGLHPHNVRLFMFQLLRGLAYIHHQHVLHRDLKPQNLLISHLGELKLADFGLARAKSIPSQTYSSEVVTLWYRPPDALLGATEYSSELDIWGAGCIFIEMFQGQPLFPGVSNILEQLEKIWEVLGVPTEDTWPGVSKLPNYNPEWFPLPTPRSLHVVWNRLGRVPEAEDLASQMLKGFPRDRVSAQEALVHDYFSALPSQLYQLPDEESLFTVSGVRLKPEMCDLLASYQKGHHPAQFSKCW
The essentials: as §1

Chain of MET(Y1235D) (P08581 whole entry Y1235D): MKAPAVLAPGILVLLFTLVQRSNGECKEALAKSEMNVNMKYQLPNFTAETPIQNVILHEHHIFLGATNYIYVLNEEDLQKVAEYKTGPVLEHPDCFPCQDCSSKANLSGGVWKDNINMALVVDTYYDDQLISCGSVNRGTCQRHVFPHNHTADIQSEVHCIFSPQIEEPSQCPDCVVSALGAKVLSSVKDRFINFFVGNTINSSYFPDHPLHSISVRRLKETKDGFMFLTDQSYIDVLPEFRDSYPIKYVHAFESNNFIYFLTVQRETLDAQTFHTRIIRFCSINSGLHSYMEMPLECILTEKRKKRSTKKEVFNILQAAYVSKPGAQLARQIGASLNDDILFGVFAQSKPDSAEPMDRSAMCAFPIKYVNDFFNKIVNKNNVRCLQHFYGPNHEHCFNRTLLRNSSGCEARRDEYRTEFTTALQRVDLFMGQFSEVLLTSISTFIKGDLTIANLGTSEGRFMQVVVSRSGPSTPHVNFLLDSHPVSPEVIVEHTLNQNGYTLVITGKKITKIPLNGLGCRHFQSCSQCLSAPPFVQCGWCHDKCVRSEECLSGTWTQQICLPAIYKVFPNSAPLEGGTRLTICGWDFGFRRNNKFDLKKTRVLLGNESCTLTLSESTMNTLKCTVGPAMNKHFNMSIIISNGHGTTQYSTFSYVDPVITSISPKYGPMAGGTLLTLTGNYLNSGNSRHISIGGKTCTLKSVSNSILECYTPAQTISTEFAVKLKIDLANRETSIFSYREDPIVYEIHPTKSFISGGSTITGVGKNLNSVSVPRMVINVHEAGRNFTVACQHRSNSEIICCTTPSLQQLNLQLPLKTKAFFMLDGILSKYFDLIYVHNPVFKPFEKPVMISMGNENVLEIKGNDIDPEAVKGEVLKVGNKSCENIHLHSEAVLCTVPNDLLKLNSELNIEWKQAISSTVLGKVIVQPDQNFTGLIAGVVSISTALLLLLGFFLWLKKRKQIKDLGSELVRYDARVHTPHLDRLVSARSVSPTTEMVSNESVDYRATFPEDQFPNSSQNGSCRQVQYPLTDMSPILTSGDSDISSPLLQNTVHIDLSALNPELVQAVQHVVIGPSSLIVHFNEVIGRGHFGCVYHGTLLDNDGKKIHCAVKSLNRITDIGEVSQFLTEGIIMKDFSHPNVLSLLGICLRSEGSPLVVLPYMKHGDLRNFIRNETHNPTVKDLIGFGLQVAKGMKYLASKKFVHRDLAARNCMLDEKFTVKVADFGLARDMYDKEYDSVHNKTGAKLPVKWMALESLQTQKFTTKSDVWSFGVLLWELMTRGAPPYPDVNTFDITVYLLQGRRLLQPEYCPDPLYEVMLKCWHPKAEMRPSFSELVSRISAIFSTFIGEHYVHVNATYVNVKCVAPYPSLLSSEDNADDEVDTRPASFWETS
T4 sequence (O75676 whole entry): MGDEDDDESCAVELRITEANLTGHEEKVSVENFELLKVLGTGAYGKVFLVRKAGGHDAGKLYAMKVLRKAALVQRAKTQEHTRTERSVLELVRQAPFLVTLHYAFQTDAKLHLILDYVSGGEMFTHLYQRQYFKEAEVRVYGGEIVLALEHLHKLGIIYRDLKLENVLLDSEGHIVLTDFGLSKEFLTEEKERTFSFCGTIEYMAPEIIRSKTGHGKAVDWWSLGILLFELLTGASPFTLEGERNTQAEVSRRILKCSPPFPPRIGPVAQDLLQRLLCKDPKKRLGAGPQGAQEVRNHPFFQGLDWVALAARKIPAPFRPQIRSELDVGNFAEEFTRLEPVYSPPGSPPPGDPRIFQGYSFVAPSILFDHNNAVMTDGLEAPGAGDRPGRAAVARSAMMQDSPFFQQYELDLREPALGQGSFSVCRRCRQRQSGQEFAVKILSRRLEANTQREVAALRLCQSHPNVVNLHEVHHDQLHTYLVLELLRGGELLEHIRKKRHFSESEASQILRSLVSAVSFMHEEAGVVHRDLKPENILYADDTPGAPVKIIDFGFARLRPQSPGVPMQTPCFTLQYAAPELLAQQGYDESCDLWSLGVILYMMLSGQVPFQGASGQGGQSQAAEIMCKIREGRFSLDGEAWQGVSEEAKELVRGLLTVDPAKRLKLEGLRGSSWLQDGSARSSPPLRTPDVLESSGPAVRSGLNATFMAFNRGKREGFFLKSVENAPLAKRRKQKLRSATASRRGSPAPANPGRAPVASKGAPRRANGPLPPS
T2 sequence (P0C264 whole entry): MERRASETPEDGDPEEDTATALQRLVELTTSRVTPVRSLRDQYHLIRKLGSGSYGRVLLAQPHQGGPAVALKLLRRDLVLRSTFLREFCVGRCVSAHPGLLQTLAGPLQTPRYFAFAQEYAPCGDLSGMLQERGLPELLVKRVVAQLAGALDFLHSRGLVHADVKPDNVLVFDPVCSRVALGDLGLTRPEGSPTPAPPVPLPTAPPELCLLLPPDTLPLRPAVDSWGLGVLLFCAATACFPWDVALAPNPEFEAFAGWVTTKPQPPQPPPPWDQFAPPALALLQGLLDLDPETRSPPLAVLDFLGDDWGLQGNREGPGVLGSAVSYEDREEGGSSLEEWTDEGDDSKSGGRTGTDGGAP

In the case of `Cc1ncccc1Oc1sc(C(N)=O)c2c1-c1c(cnn1C)CC2` [T-474, 1-methyl-8-((2-methylpyridin-3-yl)oxy)-4,5-dihydro-1H-thieno[3,4-g]indazole-6-carboxamide], the remaining binding at 0.3 µM on SGK turned out to be 100%; at TEC, 100%; at MKNK2, 86%; on MARK4, 83%; at CLK1 it was 32%; at SgK110 it was 57%. Besides, the remaining binding at 0.3 µM worked out at 100% on SLK; 100% on PRKCH; 81% at ROCK2; 100% on MET(Y1235D); 100% at ERBB4; 85% on ERK2. The remaining binding at 0.3 µM on GAK came to 92%; in [1], 100%; at CDKL2, 100%; on TRKB it was 92%; at RIOK2, 87%; on BRAF, 100%. The remaining binding at 0.3 µM on MLK3 came to 97%; at LRRK2(G2019S) it was 88%; on p38-delta it was 96%; at PFTAIRE2, 100%.
For `O=C(/C=C/c1cnccc1-c1ccc(F)cc1)Nc1ccc(CCc2nnco2)cc1` [T-418, (2E)-3-(4-(4-fluorophenyl)pyridin-3-yl)-N-(4-(2-(1,3,4-oxadiazol-2-yl)ethyl)phenyl)acrylamide], the remaining binding at 0.3 µM at SGK (sheet T-418) is 88%; on TEC (sheet T-418), 98%; on MKNK2 (sheet T-418) it was 97%; on MARK4 (sheet T-418) it was 98%; at CLK1 (sheet T-418), 100%; on SgK110 (sheet T-418), 73%. Moreover, the remaining binding at 0.3 µM on SLK (sheet T-418) came to 100%; on PRKCH (sheet T-418), 88%; on ROCK2 (sheet T-418) it was 92%; on MET(Y1235D) (sheet T-418) it was 95%; on ERBB4 (sheet T-418) it was 89%; at ERK2 (sheet T-418) it was 79%. In addition, the remaining binding at 0.3 µM on GAK (sheet T-418) was 100%; in assay [1] (sheet T-418), 90%; on CDKL2 (sheet T-418) it was 100%; on TRKB (sheet T-418), 100%; at RIOK2 (sheet T-418), 99%; on BRAF (sheet T-418), 100%. Also, the remaining binding at 0.3 µM on MLK3 (sheet T-418) was 94%; on LRRK2(G2019S) (sheet T-418), 84%; on p38-delta (sheet T-418), 100%; on PFTAIRE2 (sheet T-418), 92%.
